Test results reported in US20170001990A1 (Genentech, Inc., priority 2014, published 2017).

Biological target: Human recombinant carboxy-terminal his-tagged LDHA (amino acids 2-332) (Homo sapiens, UniProt P00338)
Assay: LDHA enzyme inhibition assay (NADH fluorescence)
Settings: LDHA IC50 (μM), 1 nM LDHA, NADH and pyruvate, stereochemistry of tested sample given

| SMILES | IC50 [µM] |
| --- | --- |
| O=C1CC(c2ccsc2)(c2cccc(OCC3CCCC3)n2)NC(=O)C1Sc1ccccc1Cl (single isomer, unassigned) [Example 194, 3-(2-chlorophenyl)sulfanyl-6-[6-(cyclopentyl-methoxy)-2-pyridyl]-6-(3-thienyl)piperidine-2,4-dione] | 0.005 |
| O=C1CC(c2ccsc2)(c2cccc(OCC3CCCO3)n2)NC(=O)C1Sc1ccccc1Cl (single isomer, unassigned) [Example 195, 3-(2-chlorophenyl)sulfanyl-6-[6-(tetrahydrofuran-2-ylmethoxy)-2-pyridyl]-6-(3-thienyl)piperidine-2,4-dione] | 0.143 |
| O=C1CC(c2ccsc2)(c2cccc(OCC3CC(F)(F)C3)n2)NC(=O)C1Sc1ccccc1Cl (single isomer, unassigned) [Example 196, 3-(2-chlorophenyl)sulfanyl-6-[6-[(3,3-difluorocyclo-butyl)methoxy]-2-pyridyl]-6-(3-thienyl)piperidine-2,4-dione] | 0.036 |
| O=C1CC(c2ccsc2)(c2cccc(Oc3ccccc3Br)n2)NC(=O)C1Sc1ccccc1Cl (single isomer, unassigned) [Example 197, 6-[6-(2-bromophenoxy)-2-pyridyl]-3-(2-chlorophenyl) sulfanyl-6-(3-thienyl) piperidine-2,4-dione] | 0.01 |
| O=C1CC(c2ccsc2)(c2cccc(Sc3ccc(F)cc3)n2)NC(=O)C1Sc1ccccc1Cl (single isomer, unassigned) [Example 198, 3-(2-chlorophenyl)sulfanyl-6-[6-(4-fluorophenyl)sulfanyl-2-pyridyl]-6-(3-thienyl)piperidine-2,4-dione] | 0.177 |
| O=C1CC(c2ccsc2)(c2cccc(OCC3COC3)n2)NC(=O)C1Sc1ccccc1Cl (single isomer, unassigned) [Example 199, 3-(2-chlorophenyl)sulfanyl-6-[6-(oxetan-3-ylmethoxy)-2-pyridyl]-6-(3-thienyl) piperidine-2,4-dione] | 0.012 |
| CCOCCOc1cccc(C2(c3ccsc3)CC(=O)C(Sc3ccccc3Cl)C(=O)N2)n1 (single isomer, unassigned) [Example 200, 3-(2-chlorophenyl)sulfanyl-6-[6-(2-ethoxyethoxy)-2-pyridyl]-6-(3-thienyl) piperidine-2,4-dione] | 0.229 |
| COCCCOc1cccc(C2(c3ccsc3)CC(=O)C(Sc3ccccc3Cl)C(=O)N2)n1 (single isomer, unassigned) [Example 201, 3-(2-chlorophenyl)sulfanyl-6-[6-(3-methoxypropoxy)-2-pyridyl]-6-(3-thienyl) piperidine-2,4-dione] | 0.037 |
| O=C1CC(c2ccsc2)(c2cccc(Oc3cncc(F)c3)n2)NC(=O)C1Sc1ccccc1Cl (single isomer, unassigned) [Example 202, 3-(2-chlorophenyl)sulfanyl-6-[6-[(5-fluoro-3-pyridyl)oxy]-2-pyridyl]-6-(3-thienyl) piperidine-2,4-dione] | 0.018 |
| O=C1CC(c2ccsc2)(c2cccc(Cc3ccccc3)n2)NC(=O)C1Sc1ccccc1Cl (single isomer, unassigned) [Example 204, 6-(6-benzyl-2-pyridyl)-3-(2-chlorophenyl)sulfanyl-6-(3-thienyl)piperidine-2,4-dione] | 0.007 |
| O=C1CC(c2ccsc2)(c2cccc(OC3CCCCC3)n2)NC(=O)C1Sc1ccccc1Cl (single isomer, unassigned) [Example 205, 3-(2-chlorophenyl)sulfanyl-6-[6-(cyclohexoxy)-2-pyridyl]-6-(3-thienyl) piperidine-2,4-dione] | 0.058 |
| CC1(COc2cccc(C3(c4ccsc4)CC(=O)C(Sc4ccccc4Cl)C(=O)N3)n2)CC1 (single isomer, unassigned) [Example 206, 3-(2-chlorophenyl)sulfanyl-6-[6-[(1-methylcyclopropyl)methoxy]-2-pyridyl]-6-(3-thienyl)piperidine-2,4-dione] | 0.027 |
| CC(Oc1cccc(C2(c3ccsc3)CC(=O)C(Sc3ccccc3Cl)C(=O)N2)n1)C1CC1 (single isomer, unassigned) [Example 207, 3-(2-chlorophenyl)sulfanyl-6-[6-(1-cyclopropylethoxy)-2-pyridyl]-6-(3-thienyl) piperidine-2,4-dione] | 0.02 |
| O=C1CC(c2ccsc2)(c2cccc(OCCC3CCCCC3)n2)NC(=O)C1Sc1ccccc1Cl (single isomer, unassigned) [Example 208, 3-(2-chlorophenyl)sulfanyl-6-[6-(2-cyclohexylethoxy)-2-pyridyl]-6-(3-thienyl) piperidine-2,4-dione] | 0.149 |
| O=C1CC(c2ccsc2)(c2cccc(OCC3CCOCC3)n2)NC(=O)C1Sc1ccccc1Cl (single isomer, unassigned) [Example 209, 3-(2-chlorophenyl)sulfanyl-6-[6-(tetrahydropyran-4-ylmethoxy)-2-pyridyl]-6-(3-thienyl)piperidine-2,4-dione] | 0.006 |
| O=C1CCC(COc2cccc(C3(c4ccsc4)CC(=O)C(Sc4ccccc4Cl)C(=O)N3)n2)O1 (single isomer, unassigned) [Example 212, 3-(2-chlorophenyl)sulfanyl-6-[6-[(5-oxotetrahydrofuran-2-yl)methoxy]-2-pyridyl]-6-(3-thienyl)piperidine-2,4-dione] | 0.03 |
| O=C1CC(c2ccsc2)(c2cccc(Sc3ccc(F)cc3)n2)NC(=O)C1Sc1ccccc1Cl (single isomer, unassigned) [Example 213, 3-(2-chlorophenyl)sulfanyl-6-[6-(4-fluorophenyl)sulfanyl-2-pyridyl]-6-(3-thienyl)piperidine-2,4-dione] | 0.034 |
| CC(Oc1cccc(C2(c3ccsc3)CC(=O)C(Sc3ccccc3Cl)C(=O)N2)n1)C1CC1 (single isomer, unassigned) [Example 214, 3-(2-chlorophenyl)sulfanyl-6-[6-(1-cyclopropyl-ethoxy)-2-pyridyl]-6-(3-thienyl)piperidine-2,4-dione] | 0.017 |
| O=C1CC(c2ccsc2)(c2cccc(OCC3CC(F)(F)C3)n2)NC(=O)C1Sc1ccccc1Cl (single isomer, unassigned) [Example 215, 3-(2-chlorophenyl)sulfanyl-6-[6-[(3,3-difluorocyclo-butyl)methoxy]-2-pyridyl]-6-(3-thienyl)piperidine-2,4-dione] | 0.014 |
| O=C1CC(c2ccsc2)(c2cccc(Oc3cc(F)cc(CO)c3)n2)NC(=O)C1Sc1ccccc1Cl (single isomer, unassigned) [Example 216, 3-(2-chlorophenyl)sulfanyl-6-[6-[3-fluoro-5-(hydroxy-methyl)phenoxy]-2-pyridyl]-6-(3-thienyl)piperidine-2,4-dione] | 0.002 |
| O=C1CC(c2ccsc2)(c2cccc(OCC3CCCO3)n2)NC(=O)C1Sc1ccccc1Cl (single isomer, unassigned) [Example 221, 3-(2-chlorophenyl)sulfanyl-6-[6-(tetrahydrofuran-2-ylmethoxy)-2-pyridyl]-6-(3-thienyl)piperidine-2,4-dione] | 0.32 |
| O=C1CC(c2ccsc2)(c2cccc(OCC(F)F)n2)NC(=O)C1Sc1ccccc1Cl (single isomer, unassigned) [Example 223, 3-(2-chlorophenyl)sulfanyl-6-[6-(2,2-difluoroethoxy)-2-pyridyl]-6-(3-thienyl) piperidine-2,4-dione] | 0.057 |
| O=C1CC(c2ccsc2)(c2cccc(OCC3COC3)n2)NC(=O)C1Sc1ccccc1Cl (single isomer, unassigned) [Example 225, 3-(2-chlorophenyl)sulfanyl-6-[6-(oxetan-3-ylmethoxy)-2-pyridyl]-6-(3-thienyl) piperidine-2,4-dione] | 0.103 |
| CCOCCOc1cccc(C2(c3ccsc3)CC(=O)C(Sc3ccccc3Cl)C(=O)N2)n1 (single isomer, unassigned) [Example 227, 3-(2-chlorophenyl)sulfanyl-6-[6-(2-ethoxyethoxy)-2-pyridyl]-6-(3-thienyl) piperidine-2,4-dione] | 0.015 |
| COCCCOc1cccc(C2(c3ccsc3)CC(=O)C(Sc3ccccc3Cl)C(=O)N2)n1 (single isomer, unassigned) [Example 228, 3-(2-chlorophenyl)sulfanyl-6-[6-(3-methoxypropoxy)-2-pyridyl]-6-(3-thienyl) piperidine-2,4-dione] | 0.419 |
| O=C1CC(c2ccsc2)(c2cccc(OCC3CCC(CO)CC3)n2)NC(=O)C1Sc1ccccc1Cl (single isomer, unassigned) [Example 233, 3-((2-chlorophenyl)thio)-6-(6-((4-(hydroxymethyl)cyclohexyl)methoxy)pyridin-2-yl)-6-(thiophen-3-yl)piperidine-2,4-dione] | 0.017 |
| O=C1CC(c2ccsc2)(c2cccc(Oc3cc(F)cc(CO)c3)n2)NC(=O)C1Sc1ccccc1Cl (single isomer, unassigned) [Example 234, 3-(2-chlorophenyl)sulfanyl-6-[6-[3-fluoro-5-(hydroxy-methyl)phenoxy]-2-pyridyl]-6-(3-thienyl)piperidine-2,4-dione] | 0.004 |
| O=C1CC(c2ccsc2)(c2cccc(OCC3CCCO3)n2)NC(=O)C1Sc1ccccc1Cl (single isomer, unassigned) [Example 235, 3-(2-chlorophenyl)sulfanyl-6-[6-(tetrahydrofuran-2-ylmethoxy)-2-pyridyl]-6-(3-thienyl)piperidine-2,4-dione] | 0.021 |
| O=C1CC(c2ccsc2)(c2cccc(OCC3COC3)n2)NC(=O)C1Sc1ccccc1Cl (single isomer, unassigned) [Example 236, 3-(2-chlorophenyl)sulfanyl-6-[6-(oxetan-3-ylmethoxy)-2-pyridyl]-6-(3-thienyl) piperidine-2,4-dione] | 0.025 |
| COCCCOc1cccc(C2(c3ccsc3)CC(=O)C(Sc3ccccc3Cl)C(=O)N2)n1 (single isomer, unassigned) [Example 237, 3-(2-chlorophenyl)sulfanyl-6-[6-(3-methoxypropoxy)-2-pyridyl]-6-(3-thienyl) piperidine-2,4-dione] | 0.094 |
